Results reported in patent publication US4254135A, “3-Amino-4-hydroxypyrrolidines” (A. H. Robins Company, Inc., priority 1979, dated 1981).
Structures can show the parent of a compound that is named as a salt.

Assay: Antitetrabenazine test (blocking of depressant effects induced in mice by intravenous tetrabenazine), antidepressant activity
Type: in vivo
Conditions: Mus musculus, ip, compound intraperitoneally, tetrabenazine intravenously

Point of comparison: `CCN1C[C@@H](O)[C@H](N(C(=O)c2ccccc2)c2ccccc2)C1` (relative stereo) [Example 29, Trans-N-(1-ethyl-4-hyroxy-3-pyrrolidinyl)-N-phenylbenzamide (E)-2-butenedioate], ED50 2.7 mg/kg. Against it:
- CCN1C[C@@H](N(C(=O)c2ccc(Cl)cc2)c2ccccc2)[C@H](OC(=O)c2ccc(Cl)cc2)C1 (relative stereo) [Example 27, Trans-4-chlorobenzoic Acid Ester with 4-[(4-Chlorobenzoyl)(phenyl)amino]-1-ethyl-3-pyrrolidinol (E)-2-butenedioate (3:4)] — 2.5-fold lower, 1.1 mg/kg
- CCN1C[C@@H](O)[C@H](N(C(=O)c2ccc(Cl)cc2)c2ccccc2)C1 (relative stereo) [Example 28, Trans-4-chloro-N-(1-ethyl-4-hydroxy-3-pyrrolindinyl)-N-phenylbenzamide Fumarate] — within 1.5-fold, 2.9 mg/kg
- CCN1C[C@@H](O)[C@H](N(C(=O)c2ccccc2)C2CCCCC2)C1 (relative stereo) [Example 50, Trans-4-[(benzoyl)(cyclohexyl)amino]-1-ethyl-3-pyrrolidinol Fumarate [1:1]] — 9-fold lower, 0.3 mg/kg
